Reference: PubChem BioAssay (NCI)
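Cells were grown in 96-well plates and exposed to each compound for 48 hours at five concentrations; endpoints were interpolated linearly between bracketing concentrations, or set to the highest concentration if not reached. TGI denotes the concentration required for complete inhibition of growth.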

Tests used:
Assay in all cases: DTP human tumour cell line panel, 48 h
[1] = system: DU-145 prostate
[2] = system: A498 renal
[3] = system: OVCAR-8 ovarian
[4] = system: ACHN renal
[5] = system: MALME-3M melanoma
[6] = system: UO-31 renal
[7] = system: T-47D breast
[8] = system: PC-3 prostate
[9] = system: HL-60(TB) leukemia
[10] = system: CAKI-1 renal

Compound	TGI [1] [µM]	TGI [2] [µM]	TGI [3] [µM]	TGI [4] [µM]	TGI [5] [µM]	TGI [6] [µM]	TGI [7] [µM]	TGI [8] [µM]	TGI [9] [µM]	TGI [10] [µM]
CCN(CCN(CC)C(=O)NC)C(=O)NC	> 100	> 100	> 100	> 100	> 100	> 100	> 100	> 100	> 100	
N/C(=N/N=C/c1cccc(F)c1)NO		> 100	> 100	> 100	> 100	> 100			93.5	91.7
COc1ccc(Oc2nc3c(N)cc(C(F)(F)F)cc3nc2-c2ccccc2)cc1		55.6	> 100	> 100		> 100	26.9	59.6	> 100	44
COc1c(C)c(C/C=C(\C)CCCCO)c(OC)c2ccccc12	> 100		> 100	> 100		> 100		> 100		94.9
CCOP(=O)(OCC)C(C)(CC)/N=C(\N)NC#N (stereo unspecified)	> 100		> 100	> 100	> 100	> 100	> 100	> 100	> 100	
Cc1ccc(Cc2n[nH]c(=O)n2N2C(=O)c3ccccc3C2=O)cc1	> 100	> 100	> 100	> 100	> 100	> 100	> 100	> 100		> 100
CC(=O)OC12OC(C)(C3C(=O)N(c4ccccc4)C(=O)C31)N(c1ccccc1)C2=O (stereo unspecified)	> 100		> 100	> 100	> 100	> 100	> 100	> 100	> 100	> 100
COc1ccc(OC)c(-c2cc(=O)c3cc4c(cc3[nH]2)OCO4)c1			> 68.5	> 80.2	> 100	> 100			> 26.1	> 65.7
COC(=O)CC1NC(=O)C1C(C)(OC)OC (stereo unspecified)		> 100	> 100	> 100	> 100	> 100			> 100	
C[C@]12CCC(=O)C=C1CC[C@@H]1C2CC[C@@]2(C)C1CC[C@@H]2OC(=O)C12OC1CCC2=O (stereo partly specified)		35.6	38.6	29.3	33.9	30.3			33.5	
COc1ccc(C=NCCCN=Cc2ccc(OC)cc2O)c(O)c1	> 100	> 100	> 100	> 100	71.5	> 100		> 100	> 100	
CCCCc1c2c(nc3c1CCCC3=O)CCCC2			> 100	> 100	98.4	> 100			> 100	
COC(=O)CN(CC1O[C@@H]2OC(C)(C)O[C@@H]2C1NC(C)=O)C(=O)OCc1ccccc1 (stereo partly specified)	> 100	> 100	> 100	> 100		> 100	> 100	> 100	> 100	> 100
